The values that follow come from patent publication US20260297081A1, “COMPOUNDS AND METHODS OF TREATING CANCERS” (Cullgen Inc., priority 2023, published 2026).

Some results are limits rather than exact numbers.

One test relates to MCF7 cells. The test can be described thus: Anti-proliferation (viability) of MCF7 cells (Table 7, FIG. 2B). It counts as cell-based. The following applies: Homo sapiens, MCF7, MCF7 cells, 3-6 days, 10-point serial dilution; read-out: GI IC50 in MCF-7.
A further test has as its target CDK4 (Homo sapiens, UniProt P11802+Q16531). Description: CDK4 percentage degradation in Calu-1 cells (Table 6). It counts as cell-based. On the set-up: Cells that express cyclin D1-3 and CDK4/6 proteins were treated with heterobifunctional compounds; endogenous in cells; host or cells: Calu-1. To be noted: 16 hours; for inhibition at 0.04 µM: 40 nM; for inhibition at 0.2 µM: 200 nM. The method in brief: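 Percentage degradation of Cyclin D1 and CDK4 derived from densitometry of ECL Western blots on lysates of Calu-1 cells. Treatment was 16 h with compound at either 40 nM or 200 nM.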

CDK4, sequence (P11802 2-303 limits assumed): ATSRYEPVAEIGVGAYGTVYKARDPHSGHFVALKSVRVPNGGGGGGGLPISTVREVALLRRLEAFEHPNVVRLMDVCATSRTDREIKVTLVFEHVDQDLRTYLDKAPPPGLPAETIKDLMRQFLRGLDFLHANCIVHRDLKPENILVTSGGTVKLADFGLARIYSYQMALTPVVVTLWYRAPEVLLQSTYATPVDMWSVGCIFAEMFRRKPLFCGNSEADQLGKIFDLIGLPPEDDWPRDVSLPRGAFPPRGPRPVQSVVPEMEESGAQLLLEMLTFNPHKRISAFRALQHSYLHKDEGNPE
CDK4, sequence (P24385 whole entry partner): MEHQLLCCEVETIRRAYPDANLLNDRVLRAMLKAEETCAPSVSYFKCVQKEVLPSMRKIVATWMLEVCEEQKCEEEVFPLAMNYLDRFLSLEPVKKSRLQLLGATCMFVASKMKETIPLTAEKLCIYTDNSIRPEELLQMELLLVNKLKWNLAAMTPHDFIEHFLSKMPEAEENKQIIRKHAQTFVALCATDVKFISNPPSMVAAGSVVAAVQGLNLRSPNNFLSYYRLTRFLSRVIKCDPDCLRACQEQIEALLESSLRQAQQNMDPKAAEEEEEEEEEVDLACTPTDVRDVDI
CDK4, sequence (Q16531 2-1140 limits assumed): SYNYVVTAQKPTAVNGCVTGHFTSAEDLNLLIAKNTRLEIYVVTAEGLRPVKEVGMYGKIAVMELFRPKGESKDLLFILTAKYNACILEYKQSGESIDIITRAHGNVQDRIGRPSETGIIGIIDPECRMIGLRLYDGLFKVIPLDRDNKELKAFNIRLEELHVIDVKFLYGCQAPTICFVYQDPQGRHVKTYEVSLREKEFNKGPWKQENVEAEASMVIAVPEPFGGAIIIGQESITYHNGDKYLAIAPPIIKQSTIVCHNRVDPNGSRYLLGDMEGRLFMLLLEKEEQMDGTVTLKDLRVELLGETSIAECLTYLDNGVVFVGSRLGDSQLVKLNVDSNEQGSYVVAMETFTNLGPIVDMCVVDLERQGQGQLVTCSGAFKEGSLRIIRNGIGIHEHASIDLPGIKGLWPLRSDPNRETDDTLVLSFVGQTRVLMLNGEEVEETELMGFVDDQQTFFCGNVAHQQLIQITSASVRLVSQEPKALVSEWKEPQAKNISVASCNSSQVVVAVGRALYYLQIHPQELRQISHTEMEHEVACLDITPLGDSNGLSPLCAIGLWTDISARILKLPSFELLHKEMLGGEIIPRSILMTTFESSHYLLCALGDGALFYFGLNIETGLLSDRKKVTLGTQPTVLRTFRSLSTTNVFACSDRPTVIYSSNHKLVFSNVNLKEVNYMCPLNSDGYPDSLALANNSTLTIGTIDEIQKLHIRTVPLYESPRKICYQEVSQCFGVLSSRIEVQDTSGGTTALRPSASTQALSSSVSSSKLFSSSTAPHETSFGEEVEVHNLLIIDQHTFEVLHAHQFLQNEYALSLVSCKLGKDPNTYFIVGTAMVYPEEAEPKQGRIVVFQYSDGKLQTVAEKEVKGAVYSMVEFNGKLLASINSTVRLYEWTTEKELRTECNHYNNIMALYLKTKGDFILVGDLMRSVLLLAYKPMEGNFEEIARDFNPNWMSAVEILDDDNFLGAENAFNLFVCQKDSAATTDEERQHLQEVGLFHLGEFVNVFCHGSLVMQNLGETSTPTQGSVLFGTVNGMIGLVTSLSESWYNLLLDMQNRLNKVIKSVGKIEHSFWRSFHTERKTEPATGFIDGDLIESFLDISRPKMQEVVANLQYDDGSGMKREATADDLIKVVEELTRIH

Consider `CC(=O)c1c(C)c2cnc(Nc3ccc(N4CCN(C(CC(=O)N5CC6(CC(Nc7nc(NC(C)C)ccc7C(=O)Nc7ccc(N(C)C)nn7)C6)C5)C(F)(F)F)CC4)cn3)nc2n(C2CCCC2)c1=O` (stereo not drawn) [CPD-367, 2-((2-(3-(4-(6-((6-acetyl-8-cyclopentyl-5-methyl-7-oxo-7,8-dihydropyrido[2,3-d]pyrimidin-2-yl)amino)pyridin-3-yl)piperazin-1-yl)-4,4,4-trifluorobutanoyl)-2-azaspiro[3.3]heptan-6-yl)amino)-N-(6-(dimethylamino)pyridazin-3-yl)-6-(isopropylamino)nicotinamide], for which, in the test with MCF7 cells, the IC50 was less than 50 nM. On CDK4, this compound displayed an inhibition at 0.04 µM of less than 30% and an inhibition at 0.2 µM of less than 30%.
On to `[2H]C([2H])([2H])Nc1ccc(C(=O)Nc2ccc(N(C)C)nn2)c(NC2CCN(C(=O)CN3CCN(c4ccc(Nc5ncc6c(C)c(C(C)=O)c(=O)n(C7CCCC7)c6n5)nc4)CC3)CC2)n1` [CPD-250, 2-((1-(2-(4-(6-((6-acetyl-8-cyclopentyl-5-methyl-7-oxo-7,8-dihydropyrido[2,3-d]pyrimidin-2-yl)amino)pyridin-3-yl)piperazin-1-yl)acetyl)piperidin-4-yl)amino)-N-(6-(dimethylamino)pyridazin-3-yl)-6-((methyl-d3)amino)nicotinamide], for which the IC50 in the test with MCF7 cells lay within 50 to 100 nM. For the same compound, at CDK4, the inhibition at 0.04 µM fell in the range of 30 to 50% and the inhibition at 0.2 µM fell in the range of 50 to 80%.
On the same counts, the results for `CC(=O)c1c(C)c2cnc(Nc3ccc(N4CCN(CCC(=O)N5CC6(CC(Nc7nc(NC(C)C)ccc7C(=O)Nc7cn(C)c(C8CC8)n7)C6)C5)CC4)cn3)nc2n(C2CCCC2)c1=O` [CPD-323, 2-((2-(3-(4-(6-((6-acetyl-8-cyclopentyl-5-methyl-7-oxo-7,8-dihydropyrido[2,3-d]pyrimidin-2-yl)amino)pyridin-3-yl)piperazin-1-yl)propanoyl)-2-azaspiro[3.3]heptan-6-yl)amino)-N-(2-cyclopropyl-1-methyl-1H-imidazol-4-yl)-6-(isopropylamino)nicotinamide] are less than 50 nM, less than 30% and less than 30%.
For `CNc1ccc(C(=O)Nc2ccc(N(C)C)nn2)c(NC2CC(Cn3cc(CN4CCN(c5ccc(Nc6ncc7c(C)c(C(C)=O)c(=O)n(C8CCCC8)c7n6)nc5)CC4)nn3)C2)n1` (stereo not drawn) [CPD-202, 2-((3-((4-((4-(6-((6-acetyl-8-cyclopentyl-5-methyl-7-oxo-7,8-dihydropyrido[2,3-d]pyrimidin-2-yl)amino)pyridin-3-yl)piperazin-1-yl)methyl)-1H-1,2,3-triazol-1-yl)methyl)cyclobutyl)amino)-N-(6-(dimethylamino)pyridazin-3-yl)-6-(methylamino)nicotinamide] the same measures were less than 50 nM, 50 to 80% and 50 to 80%.
On the same counts, the results for `CC(=O)c1c(C)c2cnc(Nc3ccc(N4CCN(CC5(C(=O)N6CC7(CC(Nc8nc(NC(C)C)ccc8C(=O)Nc8cn(C)c(C9CC9)n8)C7)C6)CC5)CC4)cn3)nc2n(C2CCCC2)c1=O` [CPD-322, 2-((2-(1-((4-(6-((6-acetyl-8-cyclopentyl-5-methyl-7-oxo-7,8-dihydropyrido[2,3-d]pyrimidin-2-yl)amino)pyridin-3-yl)piperazin-1-yl)methyl)cyclopropane-1-carbonyl)-2-azaspiro[3.3]heptan-6-yl)amino)-N-(2-cyclopropyl-1-methyl-1H-imidazol-4-yl)-6-(isopropylamino)nicotinamide] are less than 50 nM, less than 30% and less than 30%.
As to `CC(=O)c1c(C)c2cnc(Nc3ccc(N4CCN(CC(=O)NCC5CC(Nc6nc(NC(C)C)ccc6C(=O)Nc6cc(C)n(C)n6)C5)CC4)cn3)nc2n(C2CCCC2)c1=O` (stereo not drawn) [CPD-205, 2-((3-((2-(4-(6-((6-acetyl-8-cyclopentyl-5-methyl-7-oxo-7,8-dihydropyrido[2,3-d]pyrimidin-2-yl)amino)pyridin-3-yl)piperazin-1-yl)acetamido)methyl)cyclobutyl)amino)-N-(1,5-dimethyl-1H-pyrazol-3-yl)-6-(isopropylamino)nicotinamide], the IC50 in the test on MCF7 cells is less than 50 nM. At CDK4, this compound displayed an inhibition at 0.04 µM of 50 to 80% and an inhibition at 0.2 µM of 50 to 80%.
On to `CNc1ccc(C(=O)Nc2ccc(N(C)C)nn2)c(NC2CC3(C2)CN(C(=O)CC(C)N2CCN(c4ccc(Nc5ncc6c(C)c(C(C)=O)c(=O)n(C7CCCC7)c6n5)nc4)CC2)C3)n1` (stereo not drawn) [CPD-224, 2-((2-(3-(4-(6-((6-acetyl-8-cyclopentyl-5-methyl-7-oxo-7,8-dihydropyrido[2,3-d]pyrimidin-2-yl)amino)pyridin-3-yl)piperazin-1-yl)butanoyl)-2-azaspiro[3.3]heptan-6-yl)amino)-N-(6-(dimethylamino)pyridazin-3-yl)-6-(methylamino)nicotinamide], for which, in the test with MCF7 cells, the IC50 was less than 50 nM. Also, at CDK4, the inhibition at 0.04 µM is 30 to 50% and the inhibition at 0.2 µM was 30 to 50%.
On to `CC(=O)c1c(C)c2cnc(Nc3ccc(N4CCN(C(C)C(=O)NC5CC(Nc6nc(NC(C)C)ccc6C(=O)Nc6ccc(N(C)C)nn6)C5)CC4)cn3)nc2n(C2CCCC2)c1=O` (stereo not drawn) [CPD-326, 2-((3-(2-(4-(6-((6-acetyl-8-cyclopentyl-5-methyl-7-oxo-7,8-dihydropyrido[2,3-d]pyrimidin-2-yl)amino)pyridin-3-yl)piperazin-1-yl)propanamido)cyclobutyl)amino)-N-(6-(dimethylamino)pyridazin-3-yl)-6-(isopropylamino)nicotinamide], for which the IC50 in the test on MCF7 cells was in the range of 50 to 100 nM. Moreover, at CDK4, the inhibition at 0.04 µM was less than 30% and the inhibition at 0.2 µM was less than 30%.
For the compound `[2H]C([2H])([2H])Nc1ccc(C(=O)Nc2cn(C)c(C3CC3)n2)c(NC2CC3(CC(NC(=O)CN4CCN(c5ccc(Nc6ncc7c(C)c(C(C)=O)c(=O)n(C8CCCC8)c7n6)nc5)CC4)C3)C2)n1` (stereo not drawn) [CPD-237, 2-((6-(2-(4-(6-((6-acetyl-8-cyclopentyl-5-methyl-7-oxo-7,8-dihydropyrido[2,3-d]pyrimidin-2-yl)amino)pyridin-3-yl)piperazin-1-yl)acetamido)spiro[3.3]heptan-2-yl)amino)-N-(2-cyclopropyl-1-methyl-1H-imidazol-4-yl)-6-((methyl-d3)amino)nicotinamide], the IC50 in the test on MCF7 cells is greater than 100 nM. On CDK4, this compound registered an inhibition at 0.04 µM of 50 to 80% and an inhibition at 0.2 µM of 50 to 80%.
With `[2H]C([2H])([2H])Nc1ccc(C(=O)Nc2ccc(N(C)C)nn2)c(NC2CC3(C2)CN(C(=O)CC(N2CCN(c4ccc(Nc5ncc6c(C)c(C(C)=O)c(=O)n(C7CCCC7)c6n5)nc4)CC2)C(F)(F)F)C3)n1` (stereo not drawn) [CPD-342, 2-((2-(3-(4-(6-((6-acetyl-8-cyclopentyl-5-methyl-7-oxo-7,8-dihydropyrido[2,3-d]pyrimidin-2-yl)amino)pyridin-3-yl)piperazin-1-yl)-4,4,4-trifluorobutanoyl)-2-azaspiro[3.3]heptan-6-yl)amino)-N-(6-(dimethylamino)pyridazin-3-yl)-6-((methyl-d3)amino)nicotinamide], the IC50 with MCF7 cells was less than 50 nM. On CDK4, the inhibition at 0.04 µM is less than 30% and the inhibition at 0.2 µM was less than 30%.
With `CNc1ccc(C(=O)Nc2ccc(N(C)C)nn2)c(NC2CC(NC(=O)C(C)N3CCN(c4ccc(Nc5ncc6c(C)c(C(C)=O)c(=O)n(C7CCCC7)c6n5)nc4)CC3)C2)n1` (stereo not drawn) [CPD-242, 2-((3-(2-(4-(6-((6-acetyl-8-cyclopentyl-5-methyl-7-oxo-7,8-dihydropyrido[2,3-d]pyrimidin-2-yl)amino)pyridin-3-yl)piperazin-1-yl)propanamido)cyclobutyl)amino)-N-(6-(dimethylamino)pyridazin-3-yl)-6-(methylamino)nicotinamide], the IC50 in the test on MCF7 cells is greater than 100 nM. In addition, on CDK4, the inhibition at 0.04 µM lay in the range of 50 to 80% and the inhibition at 0.2 µM was 50 to 80%.
`CC(=O)c1c(C)c2cnc(Nc3ccc(N4CCC5(CC4)CC5C(=O)N4CC5(CC(Nc6nc(NC(C)C)ccc6C(=O)Nc6ccc(N(C)C)nn6)C5)C4)cn3)nc2n(C2CCCC2)c1=O` (stereo not drawn) [CPD-411, 2-((2-(6-(6-((6-acetyl-8-cyclopentyl-5-methyl-7-oxo-7,8-dihydropyrido[2,3-d]pyrimidin-2-yl)amino)pyridin-3-yl)-6-azaspiro[2.5]octane-1-carbonyl)-2-azaspiro[3.3]heptan-6-yl)amino)-N-(6-(dimethylamino)pyridazin-3-yl)-6-(isopropylamino)nicotinamide]: the IC50 in the test with MCF7 cells is less than 50 nM. Further, at CDK4, the inhibition at 0.04 µM was less than 30% and the inhibition at 0.2 µM was less than 30%.
For the compound `CC(=O)c1c(C)c2cnc(Nc3ccc(N4CCN(C(C)CC(=O)N5CCC(Nc6nc(NC(C)C)ccc6C(=O)Nc6ccc(N(C)C)nn6)CC5)CC4)cn3)nc2n(C2CCCC2)c1=O` (stereo not drawn) [CPD-359, 2-((1-(3-(4-(6-((6-acetyl-8-cyclopentyl-5-methyl-7-oxo-7,8-dihydropyrido[2,3-d]pyrimidin-2-yl)amino)pyridin-3-yl)piperazin-1-yl)butanoyl)piperidin-4-yl)amino)-N-(6-(dimethylamino)pyridazin-3-yl)-6-(isopropylamino)nicotinamide], the IC50 in the test with MCF7 cells is less than 50 nM. At CDK4, the inhibition at 0.04 µM was less than 30% and the inhibition at 0.2 µM was less than 30%.
For the compound `CNc1ccc(C(=O)Nc2ccc(N(C)C)nn2)c(NC2CCN(C(=O)CCN3CCN(c4ccc(Nc5ncc6c(C)c(C(C)=O)c(=O)n(C7CCCC7)c6n5)nc4)CC3)CC2)n1` [CPD-203, 2-((1-(3-(4-(6-((6-acetyl-8-cyclopentyl-5-methyl-7-oxo-7,8-dihydropyrido[2,3-d]pyrimidin-2-yl)amino)pyridin-3-yl)piperazin-1-yl)propanoyl)piperidin-4-yl)amino)-N-(6-(dimethylamino)pyridazin-3-yl)-6-(methylamino)nicotinamide], the IC50 in the test on MCF7 cells is less than 50 nM. On CDK4, this compound had an inhibition at 0.04 µM of 50 to 80% and an inhibition at 0.2 µM of 50 to 80%.

In general, IC50 refers to the point on the concentration scale where inhibition reaches its midpoint. As a reminder, the inhibition is the share of the control response that was lost under treatment.
